# Literature values, collected in article PMC6458983 (Cancer Chemotherapy and Pharmacology, 2019).
# Settings: cited from earlier work
smiles,measurement,setting,value
C#Cc1cccc(Nc2ncnc3cc(OCCOC)c(OCCOC)cc23)c1 [erlotinib],trough plasma concentration,"patient case study, at the time of ILD diagnosis",elevated
same,median trough concentrations versus patients without ILD,three patients at the time of suspected ILD,approximately three times higher
